Results as given in patent publication US11298363B2, “Triazolobenzazepines as vasopressin V1a receptor antagonists” (RICHTER GEDEON NYRT., priority 2017, dated 2022).

Columns and labels:
[1] = molecular target: human vasopressin V2 receptor (Homo sapiens, UniProt P30518); assay: Human vasopressin V2 receptor binding assay on 1321N1 cell line; settings: read-out: inhibition % at 1 μM on hV2 1321N1 cell line
Description: Human Vasopressin V2 Receptor Binding Assay Cells and Radioligand
To determine the final affinity value, the results of at least two independent experiments were taken into account.
Non-specific binding values were determined in the presence of an unlabeled 1.2×10^−6 M (Arg^8)-vasopressin. Samples were incubated in a total volume of 0.55 ml for 90 minutes at 27° C. Membrane-bound and free ligands were separated by filtration through a 0.5% polyethyleneimine-impregnated UniFilter® GF/B™. After drying the filter plates, 40 μl Microscint-20 (Packard) scintillation cocktail was added to the samples. Finally, radioactivity was measured using MicroBeta^2 Microplate Counter (Perkin Elmer).
The radioligand displacement ability of a substance is determined in at least two independent experiments. Specific radioligand binding can be defined as the difference between total and non-specific binding in the presence of a saturation amount of the unlabeled ligand or different concentrations of the substance to be tested. The results are given as a percentage of inhibition of the specific binding achieved in the presence of the substance to be tested.
During fitting, the asymptotes are not fixed. The Ki values (inhibition constant) are given with Cheng-Prusoff equation Ki=IC50/[1+(L/KD)] wherein [L] is the radioligand concentration used in the experiment and [KD] is the affinity of the radioactively labelled ligand for the given receptor. The KD is determined beforehand using the Scatchard curve.

[2] = molecular target: T1, human vasopressin V1a receptor (Homo sapiens, UniProt P37288); assay: Human vasopressin V1a receptor binding assay; settings: 1321N1 cell membranes, [3H]vasopressin; read-out: Ki (nM) on hV1a cell line
Outline: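 Radioligand competition on membranes from cells expressing human V1a receptor; incubation 60 minutes at 27° C., non-specific binding with 1.2×10^−6 M unlabeled (Arg^8)-vasopressin, filtration separation. Ki by Cheng-Prusoff using Scatchard-derived KD, from at least two independent experiments.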

[3] = molecular target: T1, human vasopressin V1a receptor; assay: Functional assay on human vasopressin V1a receptor expressing cell line (intracellular Ca2+ fluorescence); type: cell-based; settings: 1321N1 cells, (Arg8)-vasopressin at EC80; read-out: IC50 (nM) on hV1a cell line
mouse V1a receptor = mouse V1a receptor (Mus musculus, UniProt Q62463); assay: Functional V1a in vivo test: inhibition of oxytocin-induced scratching behaviour; settings: mice, 10 mg/kg p.o. pretreatment
Description: Functional V1a In Vivo Test
Male mice (NMRI, ToxiCoop) weighing 18-40 g were used. Animals were kept at least 5 days after delivery, during housing and measurements they were fed and drink ad libitum. The experiments were permitted by the Local Animal Protection Committee and carried out in accordance with the European Animal Protection Directives (EU Directive 2010/63/EU).
Animal behaviour was measured by an automated behavioral analysis system (LABORAS™). The sensors located below platforms detect the mechanical vibration generated by the movement of animal, and transform into an electrical signal (Quinn et al., J Neurosci Methods 2003, 130:83-92). After analyzing signals, the system analyzes the time spent with the following behavioral parameters: locomotion, immobility, climbing, grooming. The grooming algorithm by definition is able to measure the scratching behavioral response. During the experiment, mice were pretreated with the test substance or vehicle, and after the pretreatment period scratching-inducing compound (s.c. 0.3 mg/kg oxytocin) was administered, and then the animals were individually placed into measuring cages. […] To reduce the exploratory activity, the animals were measured after a 1-hour habituation to the cage. The behavioural parameters were compared to the parallel measured parameters of the control animals.
The behavioural inhibitory effect of the substances was calculated with average values of parallel measured vehicle treated groups and presented as the percentage of inhibition: 0% was expressed as average value of scratching behaviour of vehicle pretreated animals (and phys. saline s.c. pretreated with vehicle), while 100% was expressed as average value of scratching of vehicle pretreated animals that received oxytocin subcutaneously. For statistical analysis one-way analysis of variance (ANOVA) with Tukey post hoc test were used.

T1 sequence (P37288 whole entry): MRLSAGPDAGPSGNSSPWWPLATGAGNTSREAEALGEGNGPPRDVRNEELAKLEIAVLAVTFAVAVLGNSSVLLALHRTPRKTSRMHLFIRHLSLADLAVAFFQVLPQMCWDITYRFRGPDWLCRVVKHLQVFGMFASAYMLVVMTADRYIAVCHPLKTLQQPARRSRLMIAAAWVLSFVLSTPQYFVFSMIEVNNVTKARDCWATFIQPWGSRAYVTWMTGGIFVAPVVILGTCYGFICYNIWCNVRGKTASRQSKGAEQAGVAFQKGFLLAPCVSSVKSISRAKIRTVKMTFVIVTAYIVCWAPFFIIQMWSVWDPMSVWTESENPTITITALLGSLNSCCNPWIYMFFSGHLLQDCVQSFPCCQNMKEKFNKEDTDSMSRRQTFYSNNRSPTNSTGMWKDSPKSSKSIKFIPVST
Chain of mouse V1a receptor (Q62463 whole entry): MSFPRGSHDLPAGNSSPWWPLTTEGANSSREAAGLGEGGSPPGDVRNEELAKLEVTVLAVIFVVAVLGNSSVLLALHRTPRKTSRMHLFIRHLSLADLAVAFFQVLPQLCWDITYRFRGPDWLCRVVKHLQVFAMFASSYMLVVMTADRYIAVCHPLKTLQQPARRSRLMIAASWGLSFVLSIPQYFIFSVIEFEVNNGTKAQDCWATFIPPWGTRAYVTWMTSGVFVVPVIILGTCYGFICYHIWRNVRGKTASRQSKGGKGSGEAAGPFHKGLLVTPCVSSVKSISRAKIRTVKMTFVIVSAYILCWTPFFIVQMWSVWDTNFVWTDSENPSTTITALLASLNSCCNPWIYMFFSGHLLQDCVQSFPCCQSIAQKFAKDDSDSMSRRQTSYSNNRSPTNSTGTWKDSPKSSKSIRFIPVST
Chain of human vasopressin V2 receptor (P30518 whole entry): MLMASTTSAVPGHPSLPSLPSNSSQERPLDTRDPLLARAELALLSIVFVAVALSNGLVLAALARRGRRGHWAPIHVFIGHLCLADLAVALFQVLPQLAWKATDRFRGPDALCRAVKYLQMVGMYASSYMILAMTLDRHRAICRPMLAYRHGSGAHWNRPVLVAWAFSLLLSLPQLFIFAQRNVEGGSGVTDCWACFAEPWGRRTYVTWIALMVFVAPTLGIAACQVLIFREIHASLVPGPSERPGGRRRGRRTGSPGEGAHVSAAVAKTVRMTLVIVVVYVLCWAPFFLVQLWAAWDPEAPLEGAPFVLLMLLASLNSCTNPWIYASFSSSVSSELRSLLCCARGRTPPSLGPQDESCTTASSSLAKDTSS

SMILES | inhibition at 1 µM [1] [%] | Ki [2] [nM] | IC50 [3] [nM] | inhibition (%) of oxytocin-induced scratching behaviour response (mouse V1a receptor) [%]
CC(C)(C)OC(=O)NC1Cc2cc(Cl)ccc2-n2c(nnc2C2CCN(c3ccccn3)CC2)C1 (stereo not drawn) [Example 1, Tert-butyl [8-chloro-1-[1-(pyridin-2-yl)piperidin-4-yl]-5,6-dihydro-4H-[1,2,4]triazolo[4,3-a][1]benzazepin-5-yl]carbamate] | 4 | 6 | 95 | 
CCNC1Cc2cc(Cl)ccc2-n2c(nnc2[C@H]2CC[C@H](Oc3ccccn3)CC2)C1 (stereo partly drawn) [Example 23, 8-chloro-N-ethyl-1-[trans-4-(pyridin-2-yloxy)cyclohexyl]-5,6-dihydro-4H-[1,2,4]triazolo[4,3-a][1]benzazepine-5-amine] |  | 1 | 6.4 | 75
Clc1ccc2c(c1)CC(NC1CCOCC1)Cc1nnc([C@H]3CC[C@H](Oc4ccccn4)CC3)n1-2 (stereo partly drawn) [Example 29, 8-chloro-1-[trans-4-(pyridin-2-yloxy)cyclohexyl]-N-(tetrahydro-2H-pyran-4-yl)-5,6-dihydro-4H-[1,2,4]triazolo[4,3-a][1]benzazepine-5-amine] |  | 0.6 | 5.4 | 89
CN(C)CCOC1Cc2cc(Cl)ccc2-n2c(nnc2[C@H]2CC[C@H](Oc3ccccn3)CC2)C1 (stereo partly drawn) [Example 60, 2-({8-chloro-1-[trans-4-(pyridin-2-yloxy)cyclohexyl]-5,6-dihydro-4H-[1,2,4]triazolo[4,3-a][1]benzazepin-5-yl}oxy)-N,N-dimethylethanamine] |  | 2 | 45 | 40
CCN[C@@H]1Cc2cc(Cl)ccc2-n2c(nnc2[C@H]2CC[C@H](Oc3ccccn3)CC2)C1 [Example 99, (5R)-8-chloro-N-ethyl-1-[trans-4-(pyridin-2-yloxy)cyclohexyl]-5,6-dihydro-4H-[1,2,4]triazolo[4,3-a][1]benzazepin-5-amine] |  | 0.3 | 2.5 | 60
CN[C@@H]1Cc2cc(Cl)ccc2-n2c(nnc2[C@H]2CC[C@H](Oc3ccccn3)CC2)C1 [Example 100, (5R)-8-chloro-N-methyl-1-[trans-4-(pyridin-2-yloxy)cyclohexyl]-5,6-dihydro-4H-[1,2,4]triazolo[4,3-a][1]benzazepin-5-amine] |  | 0.2 | 1.5 | 96
CN(C)[C@@H]1Cc2cc(Cl)ccc2-n2c(nnc2[C@H]2CC[C@H](Oc3ccccn3)CC2)C1 [Example 101, (5R)-8-chloro-N,N-dimethyl-1-[trans-4-(pyridin-2-yloxy)cyclohexyl]-5,6-dihydro-4H-[1,2,4]triazolo[4,3-a][1]benzazepin-5-amine] |  | 0.2 | 1.3 | 105
O=C(N[C@@H]1Cc2cc(Cl)ccc2-n2c(nnc2[C@H]2CC[C@H](Oc3ccccn3)CC2)C1)C1CC1 [Example 126, N-{(5R)-8-chloro-1-[trans-4-(pyridin-2-yloxy)cyclohexyl]-5,6-dihydro-4H-[1,2,4]triazolo[4,3-a][1]benzazepin-5-yl}cyclopropanecarboxamide] |  | 0.6 | 1.8 | 43

Continued, values first:

inhibition at 1 µM [1] [%] | Ki [2] [nM] | IC50 [3] [nM] | inhibition (%) of oxytocin-induced scratching behaviour response (mouse V1a receptor) [%] | SMILES
3 | 2 | 9 |  | NC1Cc2cc(Cl)ccc2-n2c(nnc2[C@H]2CC[C@H](Oc3ccccn3)CC2)C1 (stereo partly drawn) [Example 6, 8-chloro-1-[trans-4-(pyridin-2-yloxy)cyclohexyl]-5,6-dihydro-4H-[1,2,4]triazolo[4,3-a][1]benzazepine-5-amine]
 | 0.3 | 1.2 | 92 | O[C@H]1Cc2cc(Cl)ccc2-n2c(nnc2[C@H]2CC[C@H](Oc3ccccn3)CC2)C1 [Example 56, (5S)-8-chloro-1-[trans-4-(pyridin-2-yloxy)cyclohexyl]-5,6-dihydro-4H-[1,2,4]triazolo[4,3-a][1]benzazepin-5-ol]
 | 0.4 | 2.5 | 41 | FC(F)(F)[C@H]1CC[C@H](c2nnc3n2-c2ccc(Cl)cc2CC2(C3)OCCO2)CC1 [Example 61, 8′-chloro-1′-[trans-4-(trifluoromethyl)cyclohexyl]-4′H,6′H-spiro[1,3-dioxolane-2,5′-[1,2,4]triazolo[4,3-a][1]benzazepine]]
 | 0.8 | 2.2 | 76 | N#Cc1ccc2c(c1)CC1(Cc3nnc([C@H]4CC[C@H](Oc5ccccn5)CC4)n3-2)OCCO1 [Example 66, 1′-[trans-4-(pyridin-2-yloxy)cyclohexyl]-4′H,6′H-spiro[1,3-dioxolane-2,5′-[1,2,4]triazolo[4,3-a][1]benzazepine]-8′-carbonitrile]
 | 0.3 | 0.9 | 79 | Clc1ccc2c(c1)CC1(Cc3nnc([C@H]4CC[C@H](Oc5ccccn5)CC4)n3-2)OCCCO1 [Example 88, 8′-chloro-1′-[trans-4-(pyridin-2-yloxy)cyclohexyl]-4′H,6′H-spiro[1,3-dioxane-2,5′-[1,2,4]triazolo[4,3-a][1]benzazepine]]
 | 0.4 | 1.9 | 50 | FC(F)(F)[C@H]1CC[C@H](c2nnc3n2-c2ccc(Cl)cc2CC2(C3)OCCCO2)CC1 [Example 89, 8′-chloro-1′-[trans-4-(trifluoromethyl)cyclohexyl]-4′H,6′H-spiro[[1,3]dioxane-2,5′-[1,2,4]triazolo[4,3-a][1]benzazepine]]
 | 0.2 | 0.8 | 49 | Fc1ccc2c(c1)CC1(Cc3nnc([C@H]4CC[C@H](Oc5ccccn5)CC4)n3-2)OCCO1 [Example 96, 8′-fluoro-1′-[trans-4-(pyridin-2-yloxy)cyclohexyl]-4′H,6′H-spiro[1,3-dioxolane-2,5′-[1,2,4]triazolo[4,3-a][1]benzazepine]]
 | 0.1 | 0.5 | 108 | Clc1ccc2c(c1)CC1(Cc3nnc(N4CCC(Oc5ccccn5)CC4)n3-2)OCCO1 [Example 157, 8′-chloro-1′-[4-(pyridin-2-yloxy)piperidin-1-yl]-4′H,6′H-spiro[1,3-dioxolane-2,5′-[1,2,4]triazolo[4,3-a][1]benzazepine]]
 | 0.2 | 0.9 | 41 | CO[C@]1(C)CC[C@@H](c2nnc3n2-c2ccc(Cl)cc2CC2(C3)OCCO2)CC1 [Example 198, 8′-chloro-1′-(trans-4-methoxy-4-methylcyclohexyl)-4′H,6′H-spiro[1,3-dioxolane-2,5′-[1,2,4]triazolo[4,3-a][1]benzazepine]]
 | 0.2 | 2.7 | 65 | CO[C@]1(C)CC[C@@H](c2nnc3n2-c2ccc(Cl)cc2CC2(C3)OCCCO2)CC1 [Example 204, 8′-chloro-1′-(trans-4-methoxy-4-methylcyclohexyl)-4′H,6′H-spiro[1,3-dioxane-2,5′-[1,2,4]triazolo[4,3-a][1]benzazepine]]
 | 0.2 | 2.7 | 66 | CO[C@]1(C)CC[C@H](c2nnc3n2-c2ccc(Cl)cc2CC2(C3)OCCCO2)CC1 [Example 205, 8′-chloro-1′-(cis-4-methoxy-4-methylcyclohexyl)-4′,6′H-spiro[1,3-dioxane-2,5′-[1,2,4]triazolo[4,3-a][1]benzazepine]]
